Laboratory results as given in PMC6934184, “Selective DNA-PKcs inhibition extends the therapeutic index of localized radiotherapy and chemotherapy” (The Journal of Clinical Investigation, 2019).

Target: T1, STK33 (Homo sapiens, UniProt Q9BYT3)
T1 construct: purchased Thermo Fisher Scientific (Life Technologies) SelectScreen
Assay: SelectScreen LanthaScreen
Format: binding
Conditions: read-out: % displacement
Outline: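 Percent values come from Thermo SelectScreen profiling of NU5455, combining activity and binding assays. CSF1R was run in Z'LYTE format at Km app ATP, and CAMK1 in Adapta format with ATP listed at 10.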

T1 sequence (Q9BYT3 whole entry): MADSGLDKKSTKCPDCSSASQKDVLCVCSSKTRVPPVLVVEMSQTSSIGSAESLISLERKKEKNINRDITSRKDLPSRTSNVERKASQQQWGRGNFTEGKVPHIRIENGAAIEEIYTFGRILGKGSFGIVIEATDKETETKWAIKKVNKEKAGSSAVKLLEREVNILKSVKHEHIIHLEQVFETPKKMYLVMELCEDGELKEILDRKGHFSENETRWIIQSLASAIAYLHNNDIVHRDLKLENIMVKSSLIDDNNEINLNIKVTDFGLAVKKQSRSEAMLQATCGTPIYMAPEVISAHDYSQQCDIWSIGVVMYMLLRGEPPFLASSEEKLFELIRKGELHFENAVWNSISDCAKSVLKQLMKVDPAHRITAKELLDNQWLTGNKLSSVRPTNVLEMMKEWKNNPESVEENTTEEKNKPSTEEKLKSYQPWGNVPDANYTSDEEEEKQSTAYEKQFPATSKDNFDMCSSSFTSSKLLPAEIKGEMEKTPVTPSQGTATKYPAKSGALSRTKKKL

CN(C(=O)CN1CCOCC1)c1ccc2sc3c(-c4cccc5c(=O)cc(N6CC7CCC(C6)O7)oc45)cccc3c2c1 [NU5455]
inhibition at 1 µM: 4.7%
